Results as given in PubChem BioAssay AID1902 (Broad Institute, 2009).
The source made the active and inactive calls.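 Rule for the calls: active = EC50 no more than a set limit of log units above the highest dose; inactive = the rest.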

Each molecule was assayed against S. pyogenes SKKanGAS, kanamycin survival, BacTiterGlo, 6 h (assay: S. pyogenes SKKanGAS kanamycin growth inhibitors – SKKanGAS strain, luminescence, dose confirmation, streptokinase promoter inhibitor project, dose response (AID 1902);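 note: lower survival reflects blocked streptokinase promoter driving kanamycin resistance gene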).

SMILES	EC50
CC1=NN(/C(=N\c2nnc(C)s2)Nc2ccc(C(C)(C)C)cc2)[C@H](c2ccc(C)cc2)S1	7.14 µM
Cc1ccc(Cn2ccc(=O)c(OCc3c(Cl)cccc3Cl)c2C)cc1	5.94 µM
COc1ccc(-c2nc(/C=C3\C(C)=Nc4ccccc43)c(O)o2)cc1	3.5 µM
CCCC(=O)NCCc1ccc(F)cc1	> 15 µM (inactive)
CCC(C)Nc1nc(N)c([N+](=O)[O-])c(Nc2cc(OC)ccc2OC)n1 (stereo not drawn)	1.95 µM
Oc1c(C(c2ccccn2)N2CCCCC2)cc(Cl)c2cccnc12 (stereo not drawn)	8.88 µM
CCC(CC)C1=NN2C(=N)/C(=C\c3cc(C)n(-c4cccc(C)c4)c3C)C(=O)N=C2S1	2.91 µM
CC(C)Cn1c(=O)c(C(=O)N/N=C/c2cccc(F)c2)c(O)c2ccccc21	1.83 µM
O=C(Nc1nc2ccccc2[nH]1)c1cccc(Cl)c1	10.4 µM
O=C1CCSc2ccc(Cl)cc2N1Cc1ccc(Cl)cc1	3.93 µM
COc1cc(/C=C/c2ccc3cccc(O)c3n2)c(Br)cc1O	0.35 µM
O=C(O)c1ccccc1-c1ccccc1C(=O)Nc1ccc(-c2nc3cc(Cl)ccc3o2)cc1	5.3 µM
CC(C)NC(=S)NC(c1ccccc1)(c1ccccc1)c1ccccc1	4.87 µM
Cc1[nH]c2ccccc2c1C(c1ccccn1)c1c(C)[nH]c2ccccc12	8.63 µM
O=C(Nc1ccccc1N1CCCC1)c1ccc2c(c1)OCO2	> 15 µM (inactive)
c1ccc(-c2nc(C3CCCCC3)c3sccc3n2)cc1	3.31 µM
COc1cc(/C=N/NC(=O)c2nnn(-c3nonc3N)c2C(C)C)ccc1OCc1ccc(F)cc1	11.3 µM
COc1cc(C(=O)N/N=C/c2ccc(OC(=O)c3ccccc3Cl)c(OC)c2)ccc1O	5.64 µM
O=C(COc1ccc(Cl)cc1)Nc1nnc(-c2ccc3c(c2)CCCC3)o1	0.369 µM
COc1ccc(NC(=O)c2cc3cccc(OC)c3oc2=Nc2ccc(C(=O)O)cc2)cc1OC	2.1 µM
Cc1ccccc1OCCCc1c(C)n[nH]c1C	1.09 µM
O=C1NC[C@@H](Cc2cccc3ccccc23)N(CCCCC2CCCCC2)C1=O	3.93 µM
CCOC(=O)c1cccc(N2C(N)=NC(N)=NC2(C)C)c1	0.109 µM
COc1ccc(Cl)cc1/C=C/c1ccc2cccc(O)c2n1	0.388 µM
Cc1csc(Nc2ccc(Cl)cc2)[n+]1-c1ccc(Cl)cc1	11.1 µM
O=C(CNc1cccc2ccccc12)N/N=C/c1ccc[nH]1	> 15 µM (inactive)
COc1ccc(CC(=O)NC(=S)NNC(=O)COc2c(C)cccc2C)cc1	0.134 µM

SMILES	EC50
O=C(NNC(=S)NC(=O)c1cn(-c2ccccc2)nc1-c1ccccc1)c1ccncc1	0.151 µM
OC1(C#Cc2c(-c3ccsc3)oc3ccc(N4CCOCC4)cc23)CCCCC1	3.59 µM
CCCCc1nc(N2CCN(C(=O)c3ccco3)CC2)c(C#N)c2c1CCCC2	6.45 µM
Cc1cccc(OCCn2c(NC(=O)c3ccco3)nc3ccccc32)c1	2.69 µM
Cc1ccc(S(=O)(=O)Nc2cc(Cl)c(O)c3ncccc23)cc1	7.11 µM
C[C@@]12CCC=C[C@H]1[C@H](c1ccc3ccccc3c1Br)N(Cc1ccccc1)C2=O	3.63 µM
COc1ccc(-n2nc3cc(C)c(NC(=O)C(C)C)cc3n2)cc1	> 15 µM (inactive)
CCn1cc(C(=O)O)c(=O)c2cc(F)c(N3CCN(C(=S)Nc4ccc(OC)cc4)CC3)cc21	3.18 µM
COc1ccccc1N1CC(C(=O)Nc2nnc(SCC(=O)NCC3CCCO3)s2)CC1=O (stereo not drawn)	> 15 µM (inactive)
O=C1N/C(=N\N=C\c2cccnc2)SC1Cc1ccc(SC(F)F)cc1 (stereo not drawn)	3.08 µM
COC(=O)C1CN(C#N)N(c2ccc(Cl)cc2)C12c1ccccc1-c1ccccc12 (stereo not drawn)	4.21 µM
O=C(N/N=C/c1c[nH]c2ccccc12)c1[nH]c2ccc(Br)cc2c1-c1ccccc1	2.17 µM
S=c1[nH]nc(-c2cccs2)n1/N=C/c1cn(-c2ccccc2)nc1-c1ccccc1	7.78 µM
O=C(Nc1cc(Cl)ccc1-n1cncn1)c1ccc([N+](=O)[O-])o1	6.73 µM
Cc1ccc(N=Nc2ccc(O)c(P(=O)(c3ccccc3)c3ccccc3)c2)cc1	3.36 µM
NCCCn1c(C(=O)c2cc(Cl)c(N)c(Cl)c2)c2ccc([N+](=O)[O-])cc2[n+]1[O-]	4.25 µM
O=c1cc(N2CCCCC2)c(-c2ccccc2)nn1Cc1ccc(Cl)cc1Cl	3.04 µM
O=C(N/N=C/c1c(O)n(Cc2ccccc2)c(=O)[nH]c1=O)c1ccccc1	8.62 µM
COc1ccc2nc(-n3c(C)ccc3C)sc2c1	> 15 µM (inactive)
O=S(=O)(Nc1ccc(-n2cccc2)cc1)c1ccc(Cl)c(Cl)c1	6.21 µM
COC(=O)[C@@H]1[C@@H](C#N)C2(c3ccccc3-c3ccccc32)N(c2ccc(Cl)cc2)N1C#N	9.76 µM
CCOC(=O)c1cnc(-n2nc(C)cc2C)nc1Nc1ccc(OC)cc1	0.185 µM
O=C(N/N=C/c1ccc([N+](=O)[O-])o1)c1cn(-c2ccccc2)nc1-c1ccc(F)cc1	1.16 µM
CCc1nnc(NC(=O)c2sc3nc4cc(C)ccc4cc3c2N)s1	3.77 µM
C/C(=N\NC(=O)c1cc2ccccc2cc1O)c1ccc2c(c1)OCO2	2.18 µM
Cc1nn2c(COc3ccc(NC(=O)c4ccccc4Cl)cc3)nnc2c2ccccc12	1.63 µM
